Data taken from patent US20070212355A1 (priority 2005, published 2007).

Experiments:
mutated human GLP-2R = molecular target: T1, mutated human GLP-2R (Homo sapiens, UniProt O95838, E512D/G511A/L513V); experiment: cAMP expression assay in HEK 293E clonal cell line expressing mutated human GLP-2R; assay type: cell-based; conditions: assay set-up, vs control peptide
T1 construct: expressed in transfected cells; host or cells: HEK 293E clonal cell line
T1 sequence (O95838 1-553 G511A/E512D/L513V): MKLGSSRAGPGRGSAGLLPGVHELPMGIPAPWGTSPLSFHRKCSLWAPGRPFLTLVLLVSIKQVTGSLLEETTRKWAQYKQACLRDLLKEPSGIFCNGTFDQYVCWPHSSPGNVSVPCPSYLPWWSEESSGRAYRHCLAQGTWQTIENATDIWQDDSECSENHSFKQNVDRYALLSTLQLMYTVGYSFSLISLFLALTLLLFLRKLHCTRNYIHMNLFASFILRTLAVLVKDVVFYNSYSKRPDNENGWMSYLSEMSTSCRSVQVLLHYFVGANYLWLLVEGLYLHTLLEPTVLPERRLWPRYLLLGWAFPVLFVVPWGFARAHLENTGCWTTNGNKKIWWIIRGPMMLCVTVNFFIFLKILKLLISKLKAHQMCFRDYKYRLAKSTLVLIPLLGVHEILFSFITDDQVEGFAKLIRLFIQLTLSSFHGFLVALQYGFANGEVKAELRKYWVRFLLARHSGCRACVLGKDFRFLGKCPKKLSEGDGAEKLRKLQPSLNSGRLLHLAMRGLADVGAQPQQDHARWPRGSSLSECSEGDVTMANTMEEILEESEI
Source text: To achieve this goal, a clonal cell line expressing a mutated human GLP-2R was generated by transfecting HEK 293E cells. The mutated human GLP-2R differs from the wild-type human GLP-2R (SEQ ID NO: 35) at three amino acid positions within the C-terminal intracellular region (SEQ ID NO: 36).
The cAMP expression was quantitated using the cAMP Direct Screen System (Cat. No. CSD 200, Applied Biosystems, Bedford, Mass.).
This assay was based on the cAMP Direct Screen System from Applied Biosystems utilizing a cell line expressing mutated huGLP-2R in HEK 293E cells. Peptide at concentrations ranging from 0.01 nM to 1.0 uM in PBS with 0.5% BSA was added to ˜50,000 cells suspended in 96-well plates. After a 30-minute incubation at 37° C., Lysis Buffer followed by luminescence reagents (Applied Biosystems) was added according to the manufacturers' procedures (Applied Biosystems Luminescence protocol: cAMP-Screen Direct System). Luminescence was quantitated using a TopCount liquid scintillation analyzer (PerkinElmer), and data was processed using Softmax software (Molecular Devices Corporation).

[1] = SEC-SLS self-association of peptides in PBS (pH 7.5); assay type: physicochemical
Protocol: The self-association poses a challenge to the development and manufacturing of a homogeneous therapeutic.
Solution molecular weight of the peptides was measured by SEC-SLS. Briefly, peptide solutions in PBS (pH 7.5) at 0.4 to 2.0 mg/mL were fractionated over a Superdex peptide column (Amersham Pharmacia). The eluted peaks were monitored by static light scattering at 690 nm and solution molecular weight was determined at UV 280 nm using the Astra software package (Wyatt Inc.).

[2] = CD spectra secondary structure of peptides; assay type: physicochemical; conditions: 0.2 mg/mL in PBS, 25° C.
Protocol: The secondary structures of tested peptides were determined using 0.2 mg/mL peptide solutions in PBS. Briefly, CD spectra were collected in triplicate at 1 nm intervals at 25° C. in 0.1 cm path length cell. Secondary structures were determined by fitting of the CD spectra using CD spectra software (CD Spectra Deconvolution software 2.1). All tested peptides contained peaks corresponding to the presence of alpha helices.

[3] = Helical propensity analysis using TFE (CD at 222 nm); assay type: physicochemical; conditions: 0.2 mg/mL in PBS (pH 7.5), MRE at 222 nm
Protocol: In addition, trifluoroethanol (TFE) is known to induce helix formation in peptides (Soennichsen et al., Biochemistry 31: 8791 (1992)). Accordingly, helical propensity analysis using TFE was performed. Briefly, tested peptides were diluted to 0.2 mg/mL in PBS (pH 7.5) containing 0, 1, 5, 15, 33 or 50% TFE. CD spectra were collected and CD plots were generated after data averaging, buffer subtraction and curve smoothing. Helical propensity values were obtained from mean residue ellipticity (MRE) at 222 nm versus % TFE plots. The concentration of TFE that effected a 50% transformation of the CD spectrum at 222 nm was used as a measure of helical propensity.

[4] = humans; cited from earlier work
CD1 mice = experiment: Mucosal wet weight of small intestine after 10 daily subcutaneous injections; assay type: in vivo
Source text: Afterwards, the mice were euthanized and the small intestines were removed, flushed with saline, and processed as described below.
(§1) Specifically, 4 cm sections were harvested: (1) immediately distal to the pylorus (duodenum), (2) starting 2 cm distal of the ligament of Treitz (jejunum), and (3) immediately proximal to the cecum (ileum). The remaining small intestine from ˜6 cm distal of the ligament of Treitz to 4 cm proximal to the cecum was used to prepare mucosal scrapings. From the proximal and distal ends of the remnant, an equal distance was removed until a 15 cm section remained, the remnant was cut longitudinally, rinsed, and the mucosal layer was removed using the short end of a glass microscope slide. The wet weight of the intact intestinal segments and mucosa was measured.

[5] = Pharmacokinetics in CD1 mice, TRF assay of active mimetibody; assay type: in vivo
Source text: Blood was collected at different time points into citrate buffer containing protease inhibitors to minimize the possibility of ex vivo degradation and plasma was separated by centrifugation.
(§2) A time resolved fluorescence (TRF) assay was used to measure active mimetibody. Active mimetibody reflects the intact N-terminus of the peptide still attached to the Fc region of the mimetibody.

[6] = Pharmacokinetics in cynomolgus monkeys, TRF assay; assay type: in vivo; conditions: 1 mg/kg intravenously
Source text: as §2

mice [7] = experiment: Pharmacodynamics: dosing-regimen study, intestinal weights, 11 days; assay type: in vivo
Source text: as §1
The duration of the study was 11 days and tissue was processed as described in Example 4.

[8] = SEC-SLS analysis of mimetibodies (monomer/dimer); assay type: physicochemical; conditions: purified from HEK 293E/HEK 293 expression
mice [9] = experiment: Upper gastrointestinal transit, FITC-dextran method, normal mice; assay type: in vivo; conditions: for upper gastrointestinal transit (FITC-dextran): single 4 mg/kg dose 4 days prior, FIG. 4, 4 mg/kg
Protocol: On the day of study, upper gastrointestinal transit was measured using the FITC-dextran method. This method provides both, a measure of gastrointestinal transit and a readout of the pattern of distribution of the test meal along the gastrointestinal tract. Mice were fed a test meal of […] of FITC-dextran solution (5 mg/ml of 70,000 molecular weight dextran conjugated to fluorescein-isothiocyanate in 0.5% methylcellulose/deionized water) administered intragastrically by an 18 gauge curved feeding tube. Following oral administration of the FITC-dextran test meal, mice were returned to their home cages. It was shown that a 30 min test period was the optimum duration for detecting accelerated transit, while a 45 min test period was optimum for detecting delayed transit. Following the appropriate test period, mice were sacrificed by carbon dioxide exposure. The entire gastrointestinal tract from the lower esophageal sphincter to the terminal colon was removed. The bowel segments were opened along the mesenteric border. The tissue and luminal contents of the stomach, 10 equal segments of small intestine, the cecum, and 3 equal segments of colon were placed in individual Eppendorf tubes containing 1 ml of PBS. The tissue was vigorously mixed on a table-top vortex, and solid materials were pelleted by centrifugation. Aliquots of the cleared supernatant were read in duplicate on a 96-well fluorescence plate reader to quantify the magnitude of the fluorescent signal in each segment of bowel. These values were used to calculate the Geometric Center (GC), which is defined as the weighted average distribution of the fluorescent signal along the gastrointestinal tract: GC=Σ(% of total fluorescent signal per segment×segment number)/100. Higher values represent faster rates of transit on scale of 1 to 15. […] The mimetibody-induced shift in the distribution pattern of FITC-dextran is shown in the upper panel. […] The GC is calculated in the lower panel for statistical comparison.

CC[C@H](C)[C@H](NC(=O)[C@H](Cc1ccccc1)NC(=O)[C@H](CC(=O)O)NC(=O)[C@H](CCCNC(=N)N)NC(=O)[C@H](C)NC(=O)[C@H](C)NC(=O)[C@H](CC(C)C)NC(=O)[C@H](CC(N)=O)NC(=O)[C@H](CC(=O)O)NC(=O)[C@H](CC(C)C)NC(=O)[C@@H](NC(=O)[C@@H](NC(=O)[C@H](CC(N)=O)NC(=O)[C@H](CCSC)NC(=O)[C@H](CCC(=O)O)NC(=O)[C@H](CC(=O)O)NC(=O)[C@H](CO)NC(=O)[C@H](Cc1ccccc1)NC(=O)[C@H](CO)NC(=O)CNC(=O)[C@H](CC(=O)O)NC(=O)[C@H](C)NC(=O)[C@@H](N)Cc1c[nH]cn1)[C@@H](C)O)[C@@H](C)CC)C(=O)N[C@@H](CC(N)=O)C(=O)N[C@@H](Cc1c[nH]c2ccccc12)C(=O)N[C@@H](CC(C)C)C(=O)N[C@H](C(=O)N[C@@H](CCC(N)=O)C(=O)N[C@H](C(=O)N[C@@H](CCCCN)C(=O)N[C@H](C(=O)N[C@H](C(=O)N[C@@H](CC(=O)O)C(=O)O)[C@@H](C)O)[C@@H](C)CC)[C@@H](C)O)[C@@H](C)CC [SEQ ID NO: 1]
stimulation of cAMP expression (mutated human GLP-2R): stimulated cAMP expression
self-association state ([1]; 0.4 mg/mL): monomer
SEC-SLS elution / self-association state ([1]; 1 mg/ml): overlapping dimer and monomer peaks
proportion of monomers ([1]; 2 mg/mL): about 20%
proportion of reversibly self-associated dimer ([1]; 2 mg/mL): about 80%
Helix (percentage of helical structure) [2]: 19.6%
Random coil (percentage) [2]: 37.9%
TFE required for helical transformation (helical propensity) [3]: ~16 % TFE
reported half-life [4]: 7.2 ± 2 min

SEQ ID NO: 5: A2G GLP-2 IgG4 mimetibody; core HGDGSFSDEMNTILDNLAARDFINWLIQTKITDGSGGGSGTLVTVSSESKYGPPCPPCP
increase in mucosal wet weight vs control mimetibody (CD1 mice; 0.8 mg/kg (0.26 nmole) daily s.c. 10 days, p<0.0001): statistically significant
increase in mucosal wet weight vs control mimetibody (CD1 mice; 8 mg/kg (2.6 nmole) daily s.c. 10 days, p<0.0004): statistically significant
mucosal wet weight (15 cm segment between jejunum and ileum), dose response (CD1 mice; daily s.c. 10 days, female CD1 mice, FIG. 2): dose dependent increase
effective in vivo dose lower than that of A2G GLP-2 peptide (molar basis) (CD1 mice; mucosal weight model): 50 fold
calculated half-life ([5]; CD1 mice, 3 mg/kg intravenously or subcutaneously, TRF): 26.5 h
half-life relative to GLP-2 peptide ([5]; mimetibody in mice vs reported GLP-2 peptide in humans): more than 200 fold
calculated half-life [6]: 115 h
mucosal weight difference to control mimetibody (mice [7]; 4 mg/kg every day or every other day, 11 day study, compared with once per week): more pronounced
mucosal weight compared to control mimetibody (mice [7]; 4 mg/kg once per week, 11 day study): significantly increased mucosal weight
duodenum and jejunum section wet weight over control mimetibody (mice [7]; 4 mg/kg, all regimens except for the single dose experiment): significant increase in weight
SEC-SLS association state of mimetibody [8]: dimer
upper gastrointestinal transit (FITC-dextran) (mice [9]; listed as A2G GLP-2 mimetibody): significant acceleration of intestinal transit
upper gastrointestinal transit (FITC-dextran) (mice [9]; listed as GLP-2 mimetibody): acceleration of upper gastrointestinal transit
Geometric Center (GC) of FITC-dextran (mice [9]; single injection 4 days prior, 30 minute test, scale 1 to 15, normal mice GC=6): 7.5
